“And” between values parts separate entries of the source, which are not always exact repeats. Equal values may be shown once. Read-outs that look alike come from different tables or passages of the source.
Legend:
[1] = biological target: CDK12/Cyclin K (Homo sapiens, UniProt Q9NYV4); experiment: NanoBRET live-cell target engagement, CDK12-NanoLuc/Cyclin K in HEK-293; type: binding; conditions: CDK12/K
[2] = biological target: CDK2/Cyclin E1 (Homo sapiens, UniProt P24941); experiment: NanoBRET live-cell target engagement, CDK2-NanoLuc/Cyclin E1 in HEK-293; type: binding; conditions: 10 µM
[3] = biological target: CDK5/CDK5R1 (Homo sapiens, UniProt Q00535); experiment: NanoBRET live-cell target engagement, CDK5-NanoLuc/CDK5R1 in HEK-293; type: binding; conditions: CDK5/CDK5R1; for IC50: read-out: IC50
[4] = biological target: CDK17/Cyclin Y (Homo sapiens, UniProt Q00537); experiment: NanoBRET live-cell target engagement, CDK17-NanoLuc/Cyclin Y in HEK-293; type: binding; conditions: CDK17/Y; for IC50: read-out: IC50
CDK17/Cyclin Y, sequence (Q00537 whole entry): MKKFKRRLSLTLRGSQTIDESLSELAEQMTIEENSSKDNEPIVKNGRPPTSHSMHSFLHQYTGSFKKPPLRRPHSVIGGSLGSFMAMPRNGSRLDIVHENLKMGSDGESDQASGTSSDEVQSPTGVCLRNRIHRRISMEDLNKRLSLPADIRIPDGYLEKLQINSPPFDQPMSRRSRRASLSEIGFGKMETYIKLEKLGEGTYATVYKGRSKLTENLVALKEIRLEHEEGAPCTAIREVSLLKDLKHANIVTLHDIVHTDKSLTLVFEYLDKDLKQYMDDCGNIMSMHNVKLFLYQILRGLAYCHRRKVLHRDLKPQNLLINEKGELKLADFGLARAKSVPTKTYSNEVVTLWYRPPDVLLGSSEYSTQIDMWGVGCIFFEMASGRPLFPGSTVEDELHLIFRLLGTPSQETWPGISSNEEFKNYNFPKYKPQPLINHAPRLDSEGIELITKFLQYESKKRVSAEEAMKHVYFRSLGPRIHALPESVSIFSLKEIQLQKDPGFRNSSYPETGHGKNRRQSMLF
CDK17/Cyclin Y, sequence (Q8ND76 whole entry partner): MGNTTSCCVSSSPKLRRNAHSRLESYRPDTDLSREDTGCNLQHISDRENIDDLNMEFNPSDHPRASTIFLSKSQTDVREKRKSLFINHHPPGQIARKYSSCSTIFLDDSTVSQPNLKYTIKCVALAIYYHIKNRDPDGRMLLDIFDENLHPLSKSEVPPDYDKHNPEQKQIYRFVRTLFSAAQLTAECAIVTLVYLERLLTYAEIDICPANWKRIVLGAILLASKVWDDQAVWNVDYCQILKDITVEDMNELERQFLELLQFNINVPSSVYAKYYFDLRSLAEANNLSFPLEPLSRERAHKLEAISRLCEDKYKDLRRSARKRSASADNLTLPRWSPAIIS

[5] = biological target: T1, CDK11A/Cyclin L2 (Homo sapiens, UniProt Q9UQ88); experiment: NanoBRET live-cell target engagement, CDK11A-NanoLuc/Cyclin L2 in HEK-293; type: binding; conditions: CDK11a/L2; for IC50: read-out: IC50
T1 sequence (Q9UQ88 1-783): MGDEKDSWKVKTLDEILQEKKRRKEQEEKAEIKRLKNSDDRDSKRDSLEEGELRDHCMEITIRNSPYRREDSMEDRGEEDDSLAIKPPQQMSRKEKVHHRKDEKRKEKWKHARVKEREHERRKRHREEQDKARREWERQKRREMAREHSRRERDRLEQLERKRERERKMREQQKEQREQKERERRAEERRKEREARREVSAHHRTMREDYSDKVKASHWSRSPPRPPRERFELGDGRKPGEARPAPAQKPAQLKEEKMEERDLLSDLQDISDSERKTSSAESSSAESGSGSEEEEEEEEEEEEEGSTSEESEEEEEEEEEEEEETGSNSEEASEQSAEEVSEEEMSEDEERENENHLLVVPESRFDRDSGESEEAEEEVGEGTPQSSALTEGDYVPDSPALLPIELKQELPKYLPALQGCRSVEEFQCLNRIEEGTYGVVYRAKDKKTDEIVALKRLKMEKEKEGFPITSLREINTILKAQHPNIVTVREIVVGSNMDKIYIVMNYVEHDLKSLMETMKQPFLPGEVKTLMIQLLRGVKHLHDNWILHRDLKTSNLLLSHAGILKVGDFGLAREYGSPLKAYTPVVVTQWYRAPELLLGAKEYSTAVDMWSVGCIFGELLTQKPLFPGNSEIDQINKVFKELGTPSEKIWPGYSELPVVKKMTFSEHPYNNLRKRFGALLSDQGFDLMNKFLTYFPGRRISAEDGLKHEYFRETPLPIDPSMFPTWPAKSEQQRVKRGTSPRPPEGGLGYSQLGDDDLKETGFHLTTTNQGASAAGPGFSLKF

[6] = biological target: CDK8/Cyclin C (Homo sapiens, UniProt P49336); experiment: NanoBRET live-cell target engagement, NanoLuc-CDK8/Cyclin C in HEK-293; type: binding; conditions: CDK8/C
[7] = biological target: CDK18/Cyclin Y (Homo sapiens, UniProt Q07002); experiment: NanoBRET live-cell target engagement, CDK18-NanoLuc/Cyclin Y in HEK-293; type: binding; conditions: CDK18/Y; for IC50: read-out: IC50
[8] = biological target: CDK20/Cyclin H (Homo sapiens, UniProt Q8IZL9); experiment: NanoBRET live-cell target engagement, NanoLuc-CDK20/Cyclin H in HEK-293; type: binding; conditions: CDK20/H
[9] = biological target: CDK15/Cyclin Y (Homo sapiens, UniProt Q96Q40); experiment: NanoBRET live-cell target engagement, NanoLuc-CDK15/Cyclin Y in HEK-293; type: binding; conditions: CDK15/Y; for IC50: read-out: IC50
CDK15/Cyclin Y, sequence (Q96Q40 whole entry): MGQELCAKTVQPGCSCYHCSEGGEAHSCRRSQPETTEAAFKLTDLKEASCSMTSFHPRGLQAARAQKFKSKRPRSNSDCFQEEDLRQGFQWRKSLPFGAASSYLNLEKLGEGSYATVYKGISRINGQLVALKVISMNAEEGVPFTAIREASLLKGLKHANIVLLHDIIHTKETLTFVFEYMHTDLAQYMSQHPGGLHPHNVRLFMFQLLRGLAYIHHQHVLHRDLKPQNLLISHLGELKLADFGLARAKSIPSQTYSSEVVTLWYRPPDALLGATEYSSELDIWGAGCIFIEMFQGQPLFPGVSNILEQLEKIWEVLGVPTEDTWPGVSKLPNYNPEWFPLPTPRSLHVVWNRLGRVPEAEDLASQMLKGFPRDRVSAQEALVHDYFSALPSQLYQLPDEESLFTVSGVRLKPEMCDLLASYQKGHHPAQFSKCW
CDK15/Cyclin Y, sequence (Q8ND76 whole entry partner): as the sequence (Q8ND76 whole entry partner) above

[10] = biological target: CDK6/Cyclin D1 (Homo sapiens, UniProt Q00534); experiment: NanoBRET live-cell target engagement, NanoLuc-CDK6/Cyclin D1 in HEK-293; type: binding; conditions: CDK6/D1; for IC50: read-out: IC50
[11] = biological target: CDK16/Cyclin Y (Homo sapiens, UniProt Q00536); experiment: NanoBRET live-cell target engagement, CDK16-NanoLuc/Cyclin Y in HEK-293; type: binding; conditions: CDK16/Y; for IC50: read-out: IC50
[12] = biological target: CDK13/Cyclin K (Homo sapiens, UniProt Q14004); experiment: NanoBRET live-cell target engagement, CDK13-NanoLuc/Cyclin K in HEK-293; type: binding; conditions: CDK13/K
[13] = biological target: CDK4/Cyclin D1 (Homo sapiens, UniProt P11802); experiment: NanoBRET live-cell target engagement, NanoLuc-CDK4/Cyclin D1 in HEK-293; type: binding; conditions: CDK4/D1; for IC50: read-out: IC50
CDK4/Cyclin D1, sequence (P11802 whole entry): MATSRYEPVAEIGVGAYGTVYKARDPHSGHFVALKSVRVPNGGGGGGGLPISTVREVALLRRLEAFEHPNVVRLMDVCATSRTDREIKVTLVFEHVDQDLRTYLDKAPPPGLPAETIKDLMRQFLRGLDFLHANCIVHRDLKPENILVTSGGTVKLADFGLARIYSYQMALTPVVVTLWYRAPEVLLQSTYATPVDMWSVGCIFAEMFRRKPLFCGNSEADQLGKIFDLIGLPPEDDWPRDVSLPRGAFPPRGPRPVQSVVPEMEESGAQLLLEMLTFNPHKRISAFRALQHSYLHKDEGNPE
CDK4/Cyclin D1, sequence (P24385 whole entry partner): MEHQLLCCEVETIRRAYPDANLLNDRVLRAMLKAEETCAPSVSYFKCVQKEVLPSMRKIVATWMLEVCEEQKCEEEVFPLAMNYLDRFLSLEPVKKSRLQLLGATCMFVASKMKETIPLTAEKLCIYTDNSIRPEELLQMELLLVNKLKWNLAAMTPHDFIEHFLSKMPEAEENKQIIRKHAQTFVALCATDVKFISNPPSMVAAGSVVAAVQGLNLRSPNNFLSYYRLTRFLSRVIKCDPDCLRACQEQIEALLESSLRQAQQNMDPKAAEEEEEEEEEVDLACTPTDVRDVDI

[14] = biological target: CDK1/Cyclin E1 (Homo sapiens, UniProt P06493); experiment: NanoBRET live-cell target engagement, CDK1-NanoLuc/Cyclin E1 in HEK-293; type: binding; conditions: CDK1/E1; for IC50: read-out: IC50
CDK1/Cyclin E1, sequence (P06493 whole entry): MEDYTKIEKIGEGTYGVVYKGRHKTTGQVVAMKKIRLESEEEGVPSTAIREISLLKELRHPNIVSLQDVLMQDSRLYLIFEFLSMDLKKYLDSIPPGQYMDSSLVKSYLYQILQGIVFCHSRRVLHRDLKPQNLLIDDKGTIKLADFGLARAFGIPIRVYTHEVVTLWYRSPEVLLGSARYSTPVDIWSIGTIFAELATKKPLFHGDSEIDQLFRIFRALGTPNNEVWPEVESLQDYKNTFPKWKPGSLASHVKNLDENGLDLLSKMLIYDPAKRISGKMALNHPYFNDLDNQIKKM
CDK1/Cyclin E1, sequence (P24864 whole entry partner): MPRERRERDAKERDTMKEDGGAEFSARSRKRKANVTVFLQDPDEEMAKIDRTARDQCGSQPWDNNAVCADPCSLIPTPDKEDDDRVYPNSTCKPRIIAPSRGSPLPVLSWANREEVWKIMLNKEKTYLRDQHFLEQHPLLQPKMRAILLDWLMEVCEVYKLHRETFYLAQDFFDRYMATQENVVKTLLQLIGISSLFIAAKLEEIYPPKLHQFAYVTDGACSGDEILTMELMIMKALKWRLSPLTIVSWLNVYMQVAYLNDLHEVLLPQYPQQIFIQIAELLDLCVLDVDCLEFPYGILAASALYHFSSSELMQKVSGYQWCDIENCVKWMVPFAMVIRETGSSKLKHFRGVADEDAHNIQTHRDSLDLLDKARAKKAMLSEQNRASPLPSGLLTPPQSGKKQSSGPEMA

[15] = biological target: CDK10/Cyclin L2 (Homo sapiens, UniProt Q15131); experiment: NanoBRET live-cell target engagement, CDK10-NanoLuc/Cyclin L2 in HEK-293; conditions: CDK10/L2
CDK10/Cyclin L2, sequence (Q15131 whole entry): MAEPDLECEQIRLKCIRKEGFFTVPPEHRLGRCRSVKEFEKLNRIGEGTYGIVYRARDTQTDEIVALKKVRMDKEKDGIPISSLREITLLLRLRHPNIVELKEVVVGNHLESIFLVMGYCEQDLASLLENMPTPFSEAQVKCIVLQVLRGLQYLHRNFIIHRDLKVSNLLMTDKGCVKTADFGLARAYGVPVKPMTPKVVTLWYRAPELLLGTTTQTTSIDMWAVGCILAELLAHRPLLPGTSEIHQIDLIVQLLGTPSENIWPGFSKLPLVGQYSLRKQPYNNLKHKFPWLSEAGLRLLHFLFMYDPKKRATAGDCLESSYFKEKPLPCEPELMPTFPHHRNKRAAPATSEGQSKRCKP

[16] = biological target: CDK11B/Cyclin L2 (Homo sapiens, UniProt P21127); experiment: NanoBRET live-cell target engagement, CDK11B-NanoLuc/Cyclin L2 in HEK-293; type: binding; conditions: CDK11b/L2; for IC50: read-out: IC50
CDK11B/Cyclin L2, sequence (P21127 1-782 isoform P21127-2): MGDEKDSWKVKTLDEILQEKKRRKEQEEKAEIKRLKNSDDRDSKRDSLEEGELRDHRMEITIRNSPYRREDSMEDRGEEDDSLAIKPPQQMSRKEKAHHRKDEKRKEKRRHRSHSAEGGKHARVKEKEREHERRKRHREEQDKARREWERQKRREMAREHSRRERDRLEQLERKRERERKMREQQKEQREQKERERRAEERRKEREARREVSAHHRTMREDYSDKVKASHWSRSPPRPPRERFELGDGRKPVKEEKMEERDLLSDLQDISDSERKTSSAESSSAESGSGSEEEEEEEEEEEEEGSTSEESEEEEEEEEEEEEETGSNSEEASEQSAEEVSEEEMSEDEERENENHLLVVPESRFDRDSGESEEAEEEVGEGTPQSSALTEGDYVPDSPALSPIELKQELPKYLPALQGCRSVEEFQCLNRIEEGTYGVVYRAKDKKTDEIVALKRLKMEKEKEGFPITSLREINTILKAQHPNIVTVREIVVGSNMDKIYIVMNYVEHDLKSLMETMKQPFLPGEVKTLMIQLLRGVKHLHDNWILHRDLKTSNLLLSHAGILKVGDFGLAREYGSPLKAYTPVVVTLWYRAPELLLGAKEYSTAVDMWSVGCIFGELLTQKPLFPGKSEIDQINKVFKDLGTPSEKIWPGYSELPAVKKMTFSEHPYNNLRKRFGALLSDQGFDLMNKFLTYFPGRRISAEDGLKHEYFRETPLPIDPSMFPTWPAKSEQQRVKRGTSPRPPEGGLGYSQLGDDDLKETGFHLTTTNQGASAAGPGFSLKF

[17] = biological target: CDK3/Cyclin E1 (Homo sapiens, UniProt Q00526); experiment: NanoBRET live-cell target engagement, CDK3-NanoLuc/Cyclin E1 in HEK-293; type: binding
CDK3/Cyclin E1, sequence (Q00526 whole entry): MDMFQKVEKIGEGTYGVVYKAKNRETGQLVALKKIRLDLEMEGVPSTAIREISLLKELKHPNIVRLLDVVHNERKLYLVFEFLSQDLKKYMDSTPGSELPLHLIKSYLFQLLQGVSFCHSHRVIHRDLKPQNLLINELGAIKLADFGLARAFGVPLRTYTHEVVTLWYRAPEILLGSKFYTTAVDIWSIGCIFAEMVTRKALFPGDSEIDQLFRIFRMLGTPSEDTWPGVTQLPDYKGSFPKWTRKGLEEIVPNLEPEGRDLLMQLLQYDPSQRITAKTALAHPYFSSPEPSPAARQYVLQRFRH
CDK3/Cyclin E1, sequence (P24864 whole entry partner): as the sequence (P24864 whole entry partner) above

[18] = biological target: CDK19/Cyclin C (Homo sapiens, UniProt Q9BWU1); experiment: NanoBRET live-cell target engagement, NanoLuc-CDK19/Cyclin C in HEK-293; conditions: CDK19/C
CDK19/Cyclin C, sequence (Q9BWU1 whole entry): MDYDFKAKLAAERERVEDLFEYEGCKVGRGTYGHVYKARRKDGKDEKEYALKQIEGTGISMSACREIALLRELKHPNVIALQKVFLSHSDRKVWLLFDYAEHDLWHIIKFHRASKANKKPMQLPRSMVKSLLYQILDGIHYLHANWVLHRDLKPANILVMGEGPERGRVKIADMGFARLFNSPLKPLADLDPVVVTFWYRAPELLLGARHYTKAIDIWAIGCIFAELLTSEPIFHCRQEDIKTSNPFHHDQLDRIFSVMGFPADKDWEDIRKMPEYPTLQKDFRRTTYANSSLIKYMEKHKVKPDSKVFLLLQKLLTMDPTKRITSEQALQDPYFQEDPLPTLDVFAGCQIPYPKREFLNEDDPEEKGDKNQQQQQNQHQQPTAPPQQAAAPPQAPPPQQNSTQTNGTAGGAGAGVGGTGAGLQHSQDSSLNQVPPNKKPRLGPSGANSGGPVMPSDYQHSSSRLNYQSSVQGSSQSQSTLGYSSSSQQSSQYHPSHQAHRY
CDK19/Cyclin C, sequence (P24863 whole entry partner): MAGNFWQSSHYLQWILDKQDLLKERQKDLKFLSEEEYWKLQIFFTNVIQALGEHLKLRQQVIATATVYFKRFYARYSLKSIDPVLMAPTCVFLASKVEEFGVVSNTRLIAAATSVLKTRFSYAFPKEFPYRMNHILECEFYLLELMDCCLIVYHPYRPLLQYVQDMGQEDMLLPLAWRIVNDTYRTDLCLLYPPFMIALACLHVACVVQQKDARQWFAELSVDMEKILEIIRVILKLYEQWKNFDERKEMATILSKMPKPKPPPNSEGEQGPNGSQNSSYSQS

CS(=O)(=O)N1CCC(NC(=O)c2[nH]ncc2NC(=O)c2c(Cl)cccc2Cl)CC1 [NVP-LCQ195]
Inhibition at 10µM (%) ([1]; average): 24.3% | Inhibition at 10µM (%) ([1]; experiment 1): 26.4% | Inhibition at 10µM (%) ([1]; experiment 2): 22.1% | Inhibition at 10µM (%) [2]: 99.5% and 98.9% | Inhibition at 10µM (%) ([3]; average): 93.1% | IC50 ([3]; average (± SEM where n=3)): 31 nM | Inhibition at 10µM (%) ([3]; experiment 1): 90.4% | IC50 ([3]; experiment 1): 37 nM | Inhibition at 10µM (%) ([3]; experiment 2): 95.7% | IC50 ([3]; experiment 2): 25 nM | Inhibition at 10µM (%) ([4]; average): 92.4% | IC50 ([4]; average (± SEM where n=3)): 11 nM | Inhibition at 10µM (%) ([4]; experiment 1): 92.3% | IC50 ([4]; experiment 1): 14 nM | Inhibition at 10µM (%) ([4]; experiment 2): 92.4% | IC50 ([4]; experiment 2): 7.7 nM | Inhibition at 10µM (%) ([5]; average): 94.0% | IC50 ([5]; average (± SEM where n=3)): 160 nM | Inhibition at 10µM (%) ([5]; experiment 1): 93.9% | IC50 ([5]; experiment 1): 225 nM | Inhibition at 10µM (%) ([5]; experiment 2): 94.1% | IC50 ([5]; experiment 2): 95 nM | Inhibition at 10µM (%) ([6]; average): 31.8% | Inhibition at 10µM (%) ([6]; experiment 1): 33.3% | Inhibition at 10µM (%) ([6]; experiment 2): 30.3% | Inhibition at 10µM (%) ([7]; average): 97.0% | IC50 ([7]; average (± SEM where n=3)): 240 nM | Inhibition at 10µM (%) ([7]; experiment 1): 93.5% | IC50 ([7]; experiment 1): 310 nM | Inhibition at 10µM (%) ([7]; experiment 2): 100.6% | IC50 ([7]; experiment 2): 166 nM | Inhibition at 10µM (%) ([8]; experiment 1): 26.0% | Inhibition at 10µM (%) ([8]; experiment 2): 16.0% | Inhibition at 10µM (%) ([9]; average): 92.4% | IC50 ([9]; average (± SEM where n=3)): 380 nM | Inhibition at 10µM (%) ([9]; experiment 1): 93.0% | IC50 ([9]; experiment 1): 531 nM | Inhibition at 10µM (%) ([9]; experiment 2): 91.9% | IC50 ([9]; experiment 2): 220 nM | Inhibition at 10µM (%) ([10]; average): 99.2% | IC50 ([10]; average (± SEM where n=3)): 15 nM | Inhibition at 10µM (%) ([10]; experiment 1): 98.6% | IC50 ([10]; experiment 1): 18 nM | Inhibition at 10µM (%) ([10]; experiment 2): 99.9% | IC50 ([10]; experiment 2): 12 nM | IC50 ([11]; average (± SEM where n=3)): 13 nM | Inhibition at 10µM (%) ([11]; experiment 1): 92.7% | IC50 ([11]; experiment 1): 11 nM | Inhibition at 10µM (%) ([11]; experiment 2): 92.6% | IC50 ([11]; experiment 2): 14 nM | Inhibition at 10µM (%) ([12]; average): 20.5% | Inhibition at 10µM (%) ([12]; experiment 1): 29.4% | Inhibition at 10µM (%) ([12]; experiment 2): 11.5% | Inhibition at 10µM (%) ([13]; average): 94.3% | IC50 ([13]; average (± SEM where n=3)): 15 nM | Inhibition at 10µM (%) ([13]; experiment 1): 100.8% | IC50 ([13]; experiment 1): 19 nM | Inhibition at 10µM (%) ([13]; experiment 2): 87.9% | IC50 ([13]; experiment 2): 11 nM | Inhibition at 10µM (%) ([14]; average): 92.5% | IC50 ([14]; average (± SEM where n=3)): 83 nM | Inhibition at 10µM (%) ([14]; experiment 1): 94.8% | IC50 ([14]; experiment 1): 58 nM | Inhibition at 10µM (%) ([14]; experiment 2): 90.2% | IC50 ([14]; experiment 2): 108 nM | Inhibition at 10µM (%) ([15]; average): 70.2% | Inhibition at 10µM (%) ([15]; experiment 1): 74.4% | Inhibition at 10µM (%) ([15]; experiment 2): 66.1% | Inhibition at 10µM (%) ([16]; average): 94.8% | IC50 ([16]; average (± SEM where n=3)): 37 nM | Inhibition at 10µM (%) ([16]; experiment 1): 95.4% | IC50 ([16]; experiment 1): 35 nM | Inhibition at 10µM (%) ([16]; experiment 2): 94.2% | IC50 ([16]; experiment 2): 39 nM | Inhibition at 10µM (%) ([17]; CDK3/E1, average): 97.9% | IC50 ([17]; CDK3/E1, average (± SEM where n=3), read-out: IC50): 36 nM | Inhibition at 10µM (%) ([17]; CDK3/E1, experiment 1): 98.1% | IC50 ([17]; CDK3/E1, experiment 1, read-out: IC50): 36 nM | Inhibition at 10µM (%) ([17]; CDK3/E1, experiment 2): 97.6% | IC50 ([17]; CDK3/E1, experiment 2, read-out: IC50): 36 nM | IC50 ([17]; live HEK-293, 2 h, mean ± S.E.M. (n=3) or mean (n=2), read-out: IC50 for CDK/cyclin complexes, CDK3/E1): 36 nM | Inhibition at 10µM (%) ([18]; average): 37.8% | Inhibition at 10µM (%) ([18]; experiment 1): 38.7% | Inhibition at 10µM (%) ([18]; experiment 2): 37.0%
